Drawing on patent EP2835136A1, “Somatostatin Receptor Modulator for the treatment of infertility” (PregLem S.A., priority 2013, dated 2015), this text covers Ki for two compounds.

One assay concerns the target hsst5 (Homo sapiens, UniProt P35346). The assay is described as follows: in vitro binding assay, hsst5.
For another assay, the target named is hsst3 (Homo sapiens, UniProt P32745). Put plainly: in vitro binding assay, hsst3.
The target of the next assay is hsst1 (Homo sapiens, UniProt P30872). Put plainly: in vitro binding assay, hsst1.
Chain of hsst1 (P30872 whole entry): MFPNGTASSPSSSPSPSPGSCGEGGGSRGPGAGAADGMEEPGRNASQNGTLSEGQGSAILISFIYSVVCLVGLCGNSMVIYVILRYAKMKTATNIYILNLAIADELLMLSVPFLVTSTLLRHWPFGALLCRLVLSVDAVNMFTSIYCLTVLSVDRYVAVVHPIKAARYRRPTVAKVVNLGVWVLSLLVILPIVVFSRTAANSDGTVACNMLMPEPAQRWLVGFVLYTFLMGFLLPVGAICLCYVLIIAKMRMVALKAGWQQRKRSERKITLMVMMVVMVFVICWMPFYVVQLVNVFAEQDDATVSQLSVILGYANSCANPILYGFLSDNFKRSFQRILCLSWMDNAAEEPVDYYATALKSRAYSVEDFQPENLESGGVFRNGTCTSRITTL
A further assay has as its target hsst4 (Homo sapiens, UniProt P31391). Put plainly: in vitro binding assay, hsst4.
Another assay has as its target hsst2 (Homo sapiens, UniProt P30874). The assay is described as follows: in vitro binding assay, hsst2.

Bridge positions count the residues as written; N and C are the ends. Square brackets hold non-standard residues; d marks the D form. Peptide text beside a SMILES is read from it. Phe(4-Cl) = N[C@@H](Cc1ccc(Cl)cc1)C(=O)O; 2Nal = N[C@@H](Cc1ccc2ccccc2c1)C(=O)O; 4Pal = N[C@@H](Cc1ccncc1)C(=O)O; NMeK = CN[C@@H](CCCCN)C(=O)O

Chain of hsst4 (P31391 whole entry): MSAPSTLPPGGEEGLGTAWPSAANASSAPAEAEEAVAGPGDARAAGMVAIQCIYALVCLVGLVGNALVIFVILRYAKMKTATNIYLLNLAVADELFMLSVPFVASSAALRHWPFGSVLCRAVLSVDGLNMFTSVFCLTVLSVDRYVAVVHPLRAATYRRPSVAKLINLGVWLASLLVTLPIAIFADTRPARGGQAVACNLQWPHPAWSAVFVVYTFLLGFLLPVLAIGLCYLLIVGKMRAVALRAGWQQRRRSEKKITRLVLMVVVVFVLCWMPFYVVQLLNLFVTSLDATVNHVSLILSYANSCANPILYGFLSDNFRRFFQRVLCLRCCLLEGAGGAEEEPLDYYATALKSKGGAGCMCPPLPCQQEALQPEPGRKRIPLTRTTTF
Chain of hsst3 (P32745 whole entry): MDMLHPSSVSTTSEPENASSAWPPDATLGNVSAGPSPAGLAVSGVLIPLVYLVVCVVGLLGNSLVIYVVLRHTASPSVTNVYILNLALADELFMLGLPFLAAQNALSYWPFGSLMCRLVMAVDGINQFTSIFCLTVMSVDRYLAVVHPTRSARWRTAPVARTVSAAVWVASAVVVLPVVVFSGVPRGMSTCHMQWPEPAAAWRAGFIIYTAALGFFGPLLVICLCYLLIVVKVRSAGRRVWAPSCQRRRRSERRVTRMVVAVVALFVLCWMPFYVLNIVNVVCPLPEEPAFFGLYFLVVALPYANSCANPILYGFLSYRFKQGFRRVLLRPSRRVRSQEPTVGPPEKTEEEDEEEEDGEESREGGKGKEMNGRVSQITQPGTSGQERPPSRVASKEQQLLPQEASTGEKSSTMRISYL
Chain of hsst5 (P35346 whole entry): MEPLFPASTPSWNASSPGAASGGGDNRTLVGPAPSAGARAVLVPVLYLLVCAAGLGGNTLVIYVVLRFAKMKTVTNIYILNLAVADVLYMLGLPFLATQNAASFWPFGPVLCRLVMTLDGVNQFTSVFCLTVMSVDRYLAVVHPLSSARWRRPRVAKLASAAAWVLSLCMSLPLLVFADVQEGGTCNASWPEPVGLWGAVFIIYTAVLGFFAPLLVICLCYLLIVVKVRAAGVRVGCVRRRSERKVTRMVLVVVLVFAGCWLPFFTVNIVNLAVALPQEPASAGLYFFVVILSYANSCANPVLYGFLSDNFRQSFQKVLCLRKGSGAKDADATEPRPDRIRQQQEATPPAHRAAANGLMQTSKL
Chain of hsst2 (P30874 whole entry): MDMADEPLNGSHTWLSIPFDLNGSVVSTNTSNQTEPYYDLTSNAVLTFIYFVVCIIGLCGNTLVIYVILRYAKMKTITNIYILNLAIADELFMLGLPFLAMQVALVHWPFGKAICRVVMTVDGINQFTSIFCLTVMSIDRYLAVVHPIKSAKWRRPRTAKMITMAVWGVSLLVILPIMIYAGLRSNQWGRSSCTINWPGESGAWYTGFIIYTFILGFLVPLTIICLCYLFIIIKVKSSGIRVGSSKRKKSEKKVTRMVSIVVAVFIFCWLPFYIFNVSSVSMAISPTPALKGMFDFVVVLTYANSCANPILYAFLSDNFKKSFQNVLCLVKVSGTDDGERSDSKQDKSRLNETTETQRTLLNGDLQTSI

Consider `C[C@@H](O)[C@@H]1NC(=O)[C@H](CCCCN)NC(=O)[C@@H](Cc2c[nH]c3ccccc23)NC(=O)[C@H](Cc2ccncc2)NC(=O)[C@H](NC(=O)[C@@H](N)Cc2ccc(Cl)cc2)CSSC[C@@H](C(=O)N[C@@H](Cc2ccc3ccccc3c2)C(N)=O)NC1=O` [Compound "A", Cpa-[D-Cys-4-Pal-D-Trp-Lys-Thr-Cys]-2-Nal-NH2], for which the Ki (in general, the equilibrium dissociation constant of an inhibitor or competing ligand from its target) at hsst5 turned out to be 86 nM; on hsst3, 44 nM; on hsst1, 2760 nM; at hsst4 it was 711 nM; at hsst2, 6.4 nM.
In the same order, the values of `C[C@@H](O)[C@@H]1NC(=O)[C@H](CCCCN)N(C)C(=O)[C@@H](Cc2c[nH]c3ccccc23)NC(=O)[C@H](Cc2ccncc2)NC(=O)[C@H](NC(=O)[C@@H](N)Cc2ccc(Cl)cc2)CSSC[C@@H](C(=O)N[C@@H](Cc2ccc3ccccc3c2)C(N)=O)NC1=O` [Compound "B", Cpa-[D-Cys-4-Pal-D-Trp-N-Me-Lys-Thr-Cys]-2-Nal-NH2] (H-[Phe(4-Cl)][dC][4Pal][dW][NMeK]TC[2Nal]-NH2; disulfide 2-7) are 6 nM, 66 nM, 1000 nM, 1000 nM and 17.1 nM.
